Reference: patent publication US12459919B2, “Polymorphic forms of (R)-4-(1-((3-(difluoromethyl)-1-methyl-1H-pyrazol-4-yl)sulfonyl)-1- fluoroethyl)-N-(isoxazol-3-yl)piperidine-1-carboxamide” (MyoKardia, Inc., priority 2019, dated 2025)

Assays:
[1] = DVS isotherm (hygroscopicity); format: physicochemical
[2] = Polymorph relative stability, interconversion slurring experiments; format: physicochemical
bovine cardiac myosin = bovine cardiac myosin (Bos taurus, UniProt Q9BE39); assay: Myosin activation assay (PK/LDH-coupled ATPase, skinned myofibrils); format: biochemical; conditions: concentration at which total response is increased by twenty percent
Description: Small molecule agents were assessed for their ability to activate the enzymatic activity of bovine cardiac myosin using a biochemical assay that couples the release of ADP (adenosine diphosphate) from cardiac myosin to an enzymatic coupling system consisting of pyruvate kinase and lactate dehydrogenase (PK/LDH) and monitoring the absorbance decrease of NADH (at 340 nm) as a function of time. PK converts ADP to ATP (adenosine triphosphate) by converting PEP (phosphoenolpyruvate) to pyruvate. Pyruvate is then converted to lactate by LDH by converting NADH (nicotinamide adenine dinucleotide) to NAD (oxidized nicotinamide adenine dinucleotide). […] Prior to testing small molecule agents, the bovine myofibrils were assessed for their calcium responsiveness and the calcium concentration that achieves either a 50% (pCa50 or pCa=˜6) or <5% (pCa=10) activation of the myofibril system was chosen as the final condition for assessing the activation activity of the small molecule agents. […]
A dilution series of compound was created in DMSO such that the final desired concentration of compound would be achieved in a volume of […] with a fixed DMSO concentration of 3.3% (v/v). […] The reaction progress was followed in a PerkinElmer Envision plate reader at ambient temperature using clear bottom plates. The plate reader was configured to read absorbance at 340 nm in kinetics mode for 15 minutes. […]

[3] = tested on: adult rat ventricular myocytes; assay: Cardiomyocyte contractility assay (fractional shortening, IonOptix); format: cell-based; conditions: 5 minutes perfusion, 1 Hz pacing
Description: Contractility of adult rat ventricular myocytes is determined by edge detection with an IonOptix contractility system. Aliquots of myocytes in Tyrode buffer (137 mM NaCl, 3.7 mM KCl, 0.5 mM MgCl2, 1.5 mM CaCl2, 4 mM HEPES, 11 mM glucose) are placed in a perfusion chamber (Series 20 RC-27NE; Warner Instruments), allowed to adhere to the coverslip, and then perfused with 37° C. Tyrode buffer. Myocytes are filed stimulated at 1 Hz and 10V. Only myocytes with clear striations, quiescent prior to pacing, with a cell length of 120-180 microns, a basal fractional shortening equal to 3-8% of the cell length, and a contraction velocity greater than 100 microns per second are used for contractility experiments. To determine the response to compounds, myocytes are first perfused for 60 seconds with Tyrodes buffer followed by 5 minutes of compound and a 140 second washout with Tyrodes buffer. Data is continuously recorded using IonOptix software. Contractility data is analyzed using Ionwizard software (IonOptix). For each cell, 10-20 contractility transients were averaged and compared under basal (no compound) and compound-treated conditions. Compound activity is measured by effects on fractional shortening (FS), where fractional shortening is the ratio of the peak length of the cell at contraction divided by the basal cell length normalized to 100% for an untreated cell.

Sequence of bovine cardiac myosin (Q9BE39 whole entry): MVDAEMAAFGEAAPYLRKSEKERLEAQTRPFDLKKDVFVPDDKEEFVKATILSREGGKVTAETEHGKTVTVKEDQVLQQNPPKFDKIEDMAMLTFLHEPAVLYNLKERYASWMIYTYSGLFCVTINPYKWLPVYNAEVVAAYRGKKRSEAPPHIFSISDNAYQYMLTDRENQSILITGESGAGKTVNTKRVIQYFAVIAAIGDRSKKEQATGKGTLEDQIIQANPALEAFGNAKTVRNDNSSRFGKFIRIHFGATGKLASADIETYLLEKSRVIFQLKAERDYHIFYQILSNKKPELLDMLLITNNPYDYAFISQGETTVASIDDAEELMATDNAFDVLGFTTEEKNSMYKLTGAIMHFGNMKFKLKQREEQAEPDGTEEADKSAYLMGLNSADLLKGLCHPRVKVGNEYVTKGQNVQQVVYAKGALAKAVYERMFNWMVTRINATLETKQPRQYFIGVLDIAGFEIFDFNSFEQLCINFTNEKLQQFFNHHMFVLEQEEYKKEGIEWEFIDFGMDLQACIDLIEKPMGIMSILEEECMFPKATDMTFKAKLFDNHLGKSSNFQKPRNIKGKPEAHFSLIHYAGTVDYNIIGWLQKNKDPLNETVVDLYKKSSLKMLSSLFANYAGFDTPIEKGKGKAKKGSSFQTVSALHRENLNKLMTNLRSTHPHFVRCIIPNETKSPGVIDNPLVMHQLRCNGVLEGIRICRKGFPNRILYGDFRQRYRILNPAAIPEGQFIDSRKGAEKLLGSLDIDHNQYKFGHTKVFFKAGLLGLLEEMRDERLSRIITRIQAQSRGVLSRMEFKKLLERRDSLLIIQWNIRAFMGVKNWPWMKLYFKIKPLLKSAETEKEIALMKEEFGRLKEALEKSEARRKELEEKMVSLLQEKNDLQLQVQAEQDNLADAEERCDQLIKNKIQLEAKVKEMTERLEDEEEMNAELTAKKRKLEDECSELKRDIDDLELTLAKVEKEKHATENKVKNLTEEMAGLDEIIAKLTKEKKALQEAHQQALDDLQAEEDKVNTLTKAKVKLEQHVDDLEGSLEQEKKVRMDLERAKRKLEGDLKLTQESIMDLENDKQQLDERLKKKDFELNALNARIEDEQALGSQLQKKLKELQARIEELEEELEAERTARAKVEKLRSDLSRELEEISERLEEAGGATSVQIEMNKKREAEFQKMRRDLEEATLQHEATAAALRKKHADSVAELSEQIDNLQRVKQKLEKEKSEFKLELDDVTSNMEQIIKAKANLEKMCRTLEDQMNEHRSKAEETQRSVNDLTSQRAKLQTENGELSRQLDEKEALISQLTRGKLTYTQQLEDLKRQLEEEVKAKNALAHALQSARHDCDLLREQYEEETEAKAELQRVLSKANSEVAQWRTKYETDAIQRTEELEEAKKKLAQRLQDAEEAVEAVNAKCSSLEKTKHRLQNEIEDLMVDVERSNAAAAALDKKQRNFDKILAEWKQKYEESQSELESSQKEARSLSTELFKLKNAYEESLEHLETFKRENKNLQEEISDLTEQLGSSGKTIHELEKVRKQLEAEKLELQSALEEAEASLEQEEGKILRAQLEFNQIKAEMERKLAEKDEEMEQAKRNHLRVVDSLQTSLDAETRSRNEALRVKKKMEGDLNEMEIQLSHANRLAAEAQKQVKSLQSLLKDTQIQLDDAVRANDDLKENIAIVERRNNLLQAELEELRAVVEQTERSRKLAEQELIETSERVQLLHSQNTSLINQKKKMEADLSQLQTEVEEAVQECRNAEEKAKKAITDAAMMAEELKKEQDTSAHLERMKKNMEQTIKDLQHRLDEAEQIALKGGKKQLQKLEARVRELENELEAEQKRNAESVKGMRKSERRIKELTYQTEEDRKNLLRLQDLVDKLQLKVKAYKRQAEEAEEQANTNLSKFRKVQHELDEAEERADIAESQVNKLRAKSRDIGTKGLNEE
Sequence of bovine cardiac myosin (P85100 whole entry partner): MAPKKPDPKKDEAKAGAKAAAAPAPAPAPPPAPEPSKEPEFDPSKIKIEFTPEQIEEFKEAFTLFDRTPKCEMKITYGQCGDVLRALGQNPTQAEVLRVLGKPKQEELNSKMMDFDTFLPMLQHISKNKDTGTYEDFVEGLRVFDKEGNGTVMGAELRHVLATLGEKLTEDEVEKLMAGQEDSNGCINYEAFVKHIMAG
Sequence of bovine cardiac myosin (Q3SZE5 whole entry partner): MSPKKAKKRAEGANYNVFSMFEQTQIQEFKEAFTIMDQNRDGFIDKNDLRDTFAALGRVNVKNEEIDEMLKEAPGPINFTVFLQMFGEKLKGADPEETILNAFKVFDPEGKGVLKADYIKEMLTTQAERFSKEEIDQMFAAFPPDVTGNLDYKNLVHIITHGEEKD

Hygroscopic character (DVS isotherm) [1] | Relative stability of polymorphs ([2]; 1:1 (w/w) forms A+εD and B slurried 18 hours in acetonitrile and water mixture, range of RT to 70° C.) | Polymorph stability ranking ([2]; compared to Form A, Form C, and Form D) | Compound | Myosin Activation (AC20) (bovine cardiac myosin) | Activity at 3.0 uM (fractional shortening activation over basal) ([3]; 3.0 uM compound) | Activity at 10 uM (fractional shortening activation over basal) ([3]; 10 uM compound)
nonhygroscopic | more stable compared to Form A | most stable polymorph | Cn1cc(S(=O)(=O)[C@@](C)(F)C2CCN(C(=O)Nc3ccon3)CC2)c(C(F)F)n1 [Form B, (R)-4-(1-((3-(difluoromethyl)-1-methyl-1H-pyrazol-4-yl)sulfonyl)-1-fluoroethyl)-N-(isoxazol-3-yl)piperidine-1-carboxamide] |  |  | 
non-hygroscopic |  |  | Cn1cc(S(=O)(=O)[C@@](C)(F)C2CCN(C(=O)Nc3ccon3)CC2)c(C(F)F)n1 [Form A, (R)-4-(1-((3-(difluoromethyl)-1-methyl-1H-pyrazol-4-yl)sulfonyl)-1-fluoroethyl)-N-(isoxazol-3-yl)piperidine-1-carboxamide] | +++ (myosin activation value AC20 < 2 μM) | + (fractional shorting activation <20% over basal) | ++ (fractional shorting activation values from 20% to 50% over basal)
